Data: patent US20210030005A1, “BENZOXABOROLE COMPOSITIONS HAVING A GROWTH ENHANCING EFFECT” (BORAGEN, INC., priority 2018, published 2021)

What was measured:
Assay type in all cases: in vivo
red table beet = test: Soil drench growth enhancing effect, red table beet; settings: for Average Dry Matter Weight / Average Root Length / Average Shoot Height: 4 treatments every 14 days, 14 days after final treatment
Experimental: (§1) Boron-containing compounds/compositions were applied directly to the soil, and the growth of plants was measured. An exemplary embodiment of a benzoxaborole compound includes 5-chlorobenzo[c][1,2]oxaborol-1(3H)-ol, which may be referred to herein as BAG8.
(§2) Eight 2-gallon pots were filled with steamed soil for each of the five treatments listed below:
(§3) 3-4 seeds were planted into each pot at a depth of 1 inch and covered. All seedlings were subjected to 16 hours of daylight at ˜800 μmol/m^2/second (light intensity) provided by cool-white fluorescent lamps. Daytime temperatures were ˜25° C. and were dropped to ˜18° C. at night.
(§4) Solutions were prepared by first dissolving the appropriate amount of benzoxaborole in ethanol or acetone then adding to distilled water. 100 mL of treatment was applied to each pot in a circular motion to evenly coat the surface of the soil. These treatments were applied every 14 days for a total of 4 treatments, including the at-planting treatment. Each pot was monitored, and 50 mL of distilled water was added to each pot when soil was dry.
(§5) Germination and shoot height data were recorded every seven days. 14 days after the final treatment application, plants were carefully removed from each pot and final shoot length, root length, and dry matter weight were recorded.
(§6) This experiment was conducted on red table beet, broccoli, snow pea, turnips, and spring wheat.

turnips = test: Soil drench growth enhancing effect, turnip; settings: for Average Dry Matter Weight / Average Root Length / Average Shoot Height: 4 treatments every 14 days, 14 days after final treatment
Experimental: as §1, §2, §3, §4, §5, §6

spring wheat = test: Soil drench growth enhancing effect, spring wheat; settings: for Average Dry Matter Weight / Average Root Length / Average Shoot Height: 4 treatments every 14 days, 14 days after final treatment
Experimental: as §1, §2, §3, §4, §5, §6

maize seeds = test: Seed treatment growth effect on maize (germination trays); settings: for Mean Root Length / Mean Stem Length: suspension concentrate, 10 days
Experimental: A sample suspension concentrate was prepared by mixing 0.8 g of Atlas G-5002L, 0.8 g ATLOX 4913, 5 g of glycerin, 50 mg of anti-foam compound, 0.178 g of xanthan gum, 89 mg of anti-microbial, 53.08 g of water, and 40 g of BAG8. […] […] The container was then shaken to evenly coat the seeds and allowed to dry overnight. Once dry, 50 seeds from each rate and 50 untreated seeds were placed in separate seed germination trays with moist paper towel. 10 days later, root and stem lengths from each seed were taken. Analysis of variance was used to examine root and stem length data and means were separated using Fisher's least significant difference at α=0.05.

[1] = test system: Asian Soybean Rust (Phakopsora pachyrhizi); test: Field trial, Asian Soybean Rust severity on soybean
Experimental: In this example, diseased soybeans having Asian Soybean Rust (Phakopsora pachyrhizi) were treated with BAG8 and Azoxystrobin. Testing was performed to assess the fungicidal effect of the compounds on Asian Soybean Rust and to assess the growth enhancing effects of the compounds on the diseased soybeans.
Soybeans were planted into 6×30 ft plots and replicated four times in a randomized complete block design. Two treatments and an untreated control were tested for efficacy against Asian Soybean Rust (Phakopsora pachyrhizi) and assessed for yield at the conclusion of the growing season. Foliar applications of the two treatments, BAG8 at 0.25 pounds of active ingredient per acre and azoxystrobin at 0.25 pounds of active ingredient per acre, were applied to the plots at two separate times: growth stage R1 (flowering) and growth stage R3 (bean pod formation). Best practices were used consistently across the test plots with regard to field conditions such as fertilization, insect control, weed control, and irrigation. Disease assessments were taken in each plot 28 days after the final foliar fungicide application. At maturity, each plot was harvested using standard harvesting equipment. After shelling, the beans were weighed at 13% moisture and yield calculations extrapolated to bushels per acre.
(§7) Analysis of variance (ANOVA) was used to examine disease severity data and means were separated using Fisher's least significant difference (LSD) method at α=0.05. […]

[2] = test system: Southern Rust of Maize (Puccinia polysora); test: Field trial, Southern Rust of Maize severity on maize
Experimental: In this example, diseased maize having Southern Rust of Maize (Puccinia polysora) was treated with BAG8, Azoxystrobin, and Boscalid. Testing was performed to assess the fungicidal effect of the compounds on Southern Rust of Maize (Puccinia polysora) and to assess the growth enhancing effect of the compounds on the diseased maize.
Maize was planted into 6×30 ft plots and replicated four times in a randomized complete block design. Three treatments and an untreated control were tested for efficacy against Southern Rust of Maize (Puccinia polysora) and assessed for yield at the conclusion of the growing season. Foliar applications of the three treatments, BAG8 at 0.25 pounds of active ingredient per acre, azoxystrobin at 0.25 pounds of active ingredient per acre, and boscalid at 0.24 pounds of active ingredient per acre, were applied to the plots at growth stage V8. Best practices were used consistently across the test plots with regard to field conditions such as fertilization, insect control, weed control, and irrigation. Disease assessments were taken in each plot 28 days after the foliar fungicide application. At maturity, each plot was harvested using standard harvesting equipment. After shelling, the kernels were weighed at 11% moisture and yield calculations extrapolated to bushels per acre.
as §7

[3] = treatment B, 0.12 lb/A soil drench
[4] = treatment C, 0.25 lb/A soil drench
[5] = treatment D, 0.35 lb/A soil drench
[6] = treatment E, 0.60 lb/A soil drench
[7] = all rates (0.12-0.60 lb/A), soil drench
[8] = all tested application rates, maize seed treatment

For `OB1OCc2cc(Cl)ccc21` [BAG8, 5-chlorobenzo[c][1,2]oxaborol-1(3H)-ol], the “growth effect compared with untreated control” value (red table beet; all application rates (0.12-0.60 lb/A), soil drench) was “longer shoots, longer roots, and greater dry matter weight than the untreated control”, the “Average Dry Matter Weight” value (red table beet; [3]) was 10.70 mg and the “Average Root Length” value (red table beet; [3]) was 4.50 cm. The “Average Shoot Height” value (red table beet; [3]) was 3.33 cm, the “Average Dry Matter Weight” value (red table beet; [4]) was 11.10 mg and the “Average Root Length” value (red table beet; [4]) was 5.98 cm. For the same compound, the “Average Shoot Height” value (red table beet; [4]) was 4.24 cm, the “Average Dry Matter Weight” value (red table beet; [5]) was 11.30 mg and the “Average Root Length” value (red table beet; [5]) was 5.56 cm. For the same compound, the “Average Shoot Height” value (red table beet; [5]) was 4.09 cm, the “Average Dry Matter Weight” value (red table beet; [6]) was 13.00 mg and the “Average Root Length” value (red table beet; [6]) was 5.15 cm. For the same compound, the “Average Shoot Height” value (red table beet; [6]) was 5.01 cm, the “growth effect compared with untreated control” value (turnips; [7]) was “longer shoots, longer roots, and greater dry matter weight than the untreated control” and the “Average Dry Matter Weight” value (turnips; [3]) was 6.40 mg. For the same compound, the “Average Root Length” value (turnips; [3]) was 3.67 cm, the “Average Shoot Height” value (turnips; [3]) was 1.81 cm and the “Average Dry Matter Weight” value (turnips; [4]) was 7.62 mg. The “Average Root Length” value (turnips; [4]) was 4.96 cm, the “Average Shoot Height” value (turnips; [4]) was 2.09 cm and the “Average Dry Matter Weight” value (turnips; [5]) was 7.82 mg. For the same compound, the “Average Root Length” value (turnips; [5]) was 4.02 cm, the “Average Shoot Height” value (turnips; [5]) was 2.18 cm and the “Average Dry Matter Weight” value (turnips; [6]) was 6.36 mg. The “Average Root Length” value (turnips; [6]) was 3.15 cm, the “Average Shoot Height” value (turnips; [6]) was 2.13 cm and the “growth effect compared with untreated control” value (spring wheat; [7]) was “longer shoots, longer roots, and greater dry matter weight than the untreated control”. The “increase in final dry matter weight of wheat” value (spring wheat; applied at 0.12 and 0.25 pounds per acre, soil drench) was roughly 250%, the “Average Dry Matter Weight” value (spring wheat; [3]) was 1204.30 mg and the “Average Root Length” value (spring wheat; [3]) was 21.30 cm. For the same compound, the “Average Shoot Height” value (spring wheat; [3]) was 39.50 cm, the “Average Dry Matter Weight” value (spring wheat; [4]) was 1123.60 mg and the “Average Root Length” value (spring wheat; [4]) was 24.40 cm. For the same compound, the “Average Shoot Height” value (spring wheat; [4]) was 39.70 cm, the “Average Dry Matter Weight” value (spring wheat; [5]) was 640.20 mg and the “Average Root Length” value (spring wheat; [5]) was 20.40 cm. For the same compound, the “Average Shoot Height” value (spring wheat; [5]) was 37.50 cm, the “Average Dry Matter Weight” value (spring wheat; [6]) was 649.70 mg and the “Average Root Length” value (spring wheat; [6]) was 22.00 cm. For the same compound, the “Average Shoot Height” value (spring wheat; [6]) was 39.90 cm, the “increased root length relative to untreated control” value (maize seeds; [8]) was 49-70% and the “increased stem length relative to untreated control” value (maize seeds; [8]) was 54-75%. The “Mean Root Length” value (maize seeds; seed treatment 0.25 lb ai/A) was 122.0 mm, the “Mean Stem Length” value (maize seeds; seed treatment 0.25 lb ai/A) was 141.0 mm and the “Mean Root Length” value (maize seeds; seed treatment 0.50 lb ai/A) was 110.2 mm. For the same compound, the “Mean Stem Length” value (maize seeds; seed treatment 0.50 lb ai/A) was 124.5 mm, the “Mean Root Length” value (maize seeds; seed treatment 0.75 lb ai/A) was 125.1 mm and the “Mean Stem Length” value (maize seeds; seed treatment 0.75 lb ai/A) was 136.5 mm. The “reduced disease in comparison to untreated control” value ([1]; 0.25 lb ai/A foliar) was 47%, the “Disease Severity (% Leaf Coverage)” value ([1]; 0.25 lb ai/A foliar at R1 and R3, 28 days after final application) was 48.2 c % Leaf Coverage and the “reduced disease relative to the untreated control” value ([2]; 0.25 lb ai/A foliar) was 70%. For the same compound, the “Disease Severity (% Leaf Coverage)” value ([2]; 0.25 lb ai/A foliar at V8, 28 days after application) was 19.6 b % Leaf Coverage.
